According to patent US20260248927A1, “TARGETED PROTEIN DEGRADATION USING BIFUNCTIONAL COMPOUNDS THAT BIND UBIQUITIN LIGASE AND TARGET MCL-1 PROTEIN” (Captor Therapeutics S.A., priority 2022, published 2026):
Counter-ions that a name gives are not always drawn.

Experiments:
[1] = target: [MCL-1]-[compound of formula (I)]—[CRBN/DDB1] (Homo sapiens, UniProt Q07820+Q96SW2); assay: HTRF ternary complex formation assay; format: binding; details: hMcl-1 and CRBN, 180 min at 25° C.; read-out: HTRF ternary complex Average pEC50 by molecule (converted)
Procedure: The effect of the bifunctional compounds of the invention on the formation of a ternary complex composed of [MCL-1]-[compound of formula (I)]—[CRBN/DDB1] was investigated with HTRF ternary complex assay.
Mix of protein solution was prepared: • 48 nM hMcl-1 and 105.6 nM CRBN were prepared in PPI Europium detection buffer with 2 mM DTT. • Acceptor and donor stock solutions were diluted 100 times in PPI Europium detection buffer. Equal volumes of both reagents were mixed. Finally giving 3 nM of Streptavidin-Eu cryptate ([…]) and 6.67 nM of Anti-6×his-d2 ([…]).
5 μl of protein mix was dispensed to all wells. The tested compounds in dose-response were dispensed onto a white 384-well low volume plate (Greiner, 784075). DMSO was backfilled to all wells, resulting in a final DMSO content of 0.5%. Wells containing only DMSO served as a background. Next, 5 μl of solution with donor and acceptor was added to the wells.
The plate was sealed with transparent film and shaken using a VibroTurbulator for 60 sec at level 3. The plate was then spun down shortly (10 s, 1000 rcf) and incubated at 25° C. for 180 min.
The read-out was performed with plate reader (Pherastar, BMG Labtech) in time resolved fluorescence mode. Filterset: TR 337 665 620.
The results were analyzed as follows: • 1) an average of fluorescence for background signal was calculated and used as a negative control; • 2) raw fluorescence values for tested compounds were normalized against negative controls; • 3) bell shape curve was fitted to a gaussian distribution using a non-linear least squares Gauss-Newton algorithm; • 4) EC50 and pEC50 values were determined.

[2] = test system: MV4-11 cells; assay: Cell viability assay (CellTiter-Glo), MV4-11; format: cell-based; details: Homo sapiens, MV4-11, 24 hours, 1% FBS, read-out: Average pCC50 by molecule MV4-11 (converted)
From the text: (§1) The effect of various compounds of the invention on the viability of MV4-11 and ARH-77 cell lines was investigated, using the CTG protocol described below.
(§2) MV4-11 cell lines are derived from acute myeloid leukaemia and it is described in the literature as a MCL-1 dependent cell line, as opposed to lymphoblast-like ARH-77 cell line, which is described as independent of MCL-1 (Tron A E et al. Nat Commun. 2018; 9: 5341; Caenepeel S et al. Cancer Discov. 2018 December; 8(12): 1582-1597).
(§3) Cells (MV4-11 or ARH-77) were seeded on […] in a growth medium with 1% FBS. Next, compound stocks were pre-diluted in DMSO and added directly to the cell culture media (final DMSO concentration: 0.5%). Compound concentrations used in this assay: 1/3 dilutions starting at 30 μM (9 to 12 points). After 24 hours of incubation, cell viability was evaluated using CellTiter-Glo Luminescent Cell Viability Assay (Promega, cat #G7572). The luminescence signal was measured using a CLARIOstar Plus Multi-Mode Microplate Reader (574-590 nm).
(§4) Results were normalized to DMSO control. Collected data were analyzed using GraphPad Prism to calculate pCC50 values.

[3] = Cell viability assay (CellTiter-Glo), ARH-77; format: cell-based; details: human, ARH-77 cells (lymphoblast-like, MCL-1 independent), ARH-77, 24 hours, 1% FBS, read-out: Average pCC50 by molecule ARH-77 (converted)
From the text: as §1, §2, §3, §4

Chain of [MCL-1]-[compound of formula (I)]—[CRBN/DDB1] (Q07820 whole entry): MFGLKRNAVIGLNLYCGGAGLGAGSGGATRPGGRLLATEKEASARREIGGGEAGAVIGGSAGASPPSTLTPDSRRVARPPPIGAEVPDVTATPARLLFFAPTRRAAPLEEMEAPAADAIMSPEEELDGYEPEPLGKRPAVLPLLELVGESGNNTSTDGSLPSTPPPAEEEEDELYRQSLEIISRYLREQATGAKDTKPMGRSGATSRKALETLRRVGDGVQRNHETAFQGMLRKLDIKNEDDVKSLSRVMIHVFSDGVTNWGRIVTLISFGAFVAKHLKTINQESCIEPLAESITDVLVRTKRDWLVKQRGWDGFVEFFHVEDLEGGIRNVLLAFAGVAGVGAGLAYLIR
Chain of [MCL-1]-[compound of formula (I)]—[CRBN/DDB1] (Q96SW2 whole entry): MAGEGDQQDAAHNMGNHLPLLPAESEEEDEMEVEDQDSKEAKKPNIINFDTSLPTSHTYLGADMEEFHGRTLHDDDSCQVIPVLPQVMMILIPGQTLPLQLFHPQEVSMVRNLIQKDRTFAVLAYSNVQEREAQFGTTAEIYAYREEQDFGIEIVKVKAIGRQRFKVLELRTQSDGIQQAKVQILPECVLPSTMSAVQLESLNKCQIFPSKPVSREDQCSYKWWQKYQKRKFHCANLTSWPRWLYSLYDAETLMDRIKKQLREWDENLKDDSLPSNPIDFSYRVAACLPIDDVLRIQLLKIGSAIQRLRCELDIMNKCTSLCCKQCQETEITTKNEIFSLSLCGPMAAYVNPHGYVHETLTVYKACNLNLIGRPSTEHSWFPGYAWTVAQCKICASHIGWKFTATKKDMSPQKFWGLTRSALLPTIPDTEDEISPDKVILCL
Chain of [MCL-1]-[compound of formula (I)]—[CRBN/DDB1] (Q16531 whole entry partner): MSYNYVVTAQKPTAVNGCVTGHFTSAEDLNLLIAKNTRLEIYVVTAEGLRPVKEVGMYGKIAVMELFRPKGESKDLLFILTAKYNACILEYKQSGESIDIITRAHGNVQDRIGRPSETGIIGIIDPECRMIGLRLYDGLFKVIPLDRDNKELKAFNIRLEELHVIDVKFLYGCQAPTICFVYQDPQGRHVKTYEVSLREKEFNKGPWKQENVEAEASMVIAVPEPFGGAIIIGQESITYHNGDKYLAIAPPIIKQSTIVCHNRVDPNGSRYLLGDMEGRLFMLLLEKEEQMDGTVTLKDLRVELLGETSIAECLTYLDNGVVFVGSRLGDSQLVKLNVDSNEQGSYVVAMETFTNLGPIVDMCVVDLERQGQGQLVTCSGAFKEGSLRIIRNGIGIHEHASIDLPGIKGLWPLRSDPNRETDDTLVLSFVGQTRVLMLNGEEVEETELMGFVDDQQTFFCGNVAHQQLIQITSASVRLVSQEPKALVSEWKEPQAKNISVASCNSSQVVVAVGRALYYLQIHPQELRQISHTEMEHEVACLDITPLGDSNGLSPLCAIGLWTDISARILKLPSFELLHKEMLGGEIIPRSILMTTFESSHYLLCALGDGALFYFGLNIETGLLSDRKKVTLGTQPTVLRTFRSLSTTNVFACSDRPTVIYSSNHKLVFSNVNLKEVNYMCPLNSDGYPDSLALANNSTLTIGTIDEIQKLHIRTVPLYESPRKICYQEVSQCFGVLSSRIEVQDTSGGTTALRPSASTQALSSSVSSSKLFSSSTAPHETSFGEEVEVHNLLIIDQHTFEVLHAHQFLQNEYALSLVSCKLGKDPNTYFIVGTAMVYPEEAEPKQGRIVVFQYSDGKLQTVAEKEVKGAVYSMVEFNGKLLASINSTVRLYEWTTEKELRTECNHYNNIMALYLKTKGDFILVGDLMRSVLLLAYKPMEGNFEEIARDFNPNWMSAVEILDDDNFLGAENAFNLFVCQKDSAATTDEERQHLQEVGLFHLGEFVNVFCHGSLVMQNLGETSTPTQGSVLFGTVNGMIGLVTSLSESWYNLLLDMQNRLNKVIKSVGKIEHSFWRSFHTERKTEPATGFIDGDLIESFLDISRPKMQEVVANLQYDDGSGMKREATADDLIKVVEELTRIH

Structure (SMILES) | EC50 [1] | CC50 [2] | CC50 at 24 h [3]
CCc1nn2c(c1-c1c(Cl)ccc3c(CCCOc4cccc5cc(F)ccc45)c(C(=O)O)n(CCN4CCN(C(=O)COc5cccc6c5CN(C5CCC(=O)NC5=O)C6=O)CC4)c13)COCC2 (stereo not drawn) [Compound 36, 6-Chloro-1-(2-(4-(2-((2-(2,6-dioxopiperidin-3-yl)-1-oxoisoindolin-4-yl)oxy)acetyl)piperazin-1-yl)ethyl)-7-(2-ethyl-6,7-dihydro-4H-pyrazolo[5,1-c][1,4]oxazin-3-yl)-3-(3-((6-fluoronaphthalen-1-yl)oxy)propyl)-1H-indole-2-carboxylic acid] | < 316 nM | < 100 nM | > 10000 nM
Cc1nc2cc(C(=O)NCC(=O)N3CCN(CCn4c(C(=O)O)c(CCCOc5cccc6cc(F)ccc56)c5ccc(Cl)c(-c6c(C)nn(C)c6C)c54)CC3)ccc2cc1C1CCC(=O)NC1=O (stereo not drawn) [Compound 6, 6-Chloro-1-(2-(4-((3-(2,6-dioxopiperidin-3-yl)-2-methylquinoline-7-carbonyl)glycyl)piperazin-1-yl)ethyl)-3-(3-((6-fluoronaphthalen-1-yl)oxy)propyl)-7-(1,3,5-trimethyl-1H-pyrazol-4-yl)-1H-indole-2-carboxylic acid] | < 100 nM | < 100 nM | > 10000 nM
Cc1nc2c(C(=O)NC3CCC(=O)NC3=O)cc(OCCC(=O)N3CCN(CCn4c(C(=O)O)c(CCCOc5cccc6cc(F)ccc56)c5ccc(Cl)c(-c6c(C)nn(C)c6C)c54)CC3)cc2[nH]1 (stereo not drawn) [Compound 3, 6-Chloro-1-(2-{4-[3-({4-[(2,6-dioxopiperidin-3-yl)carbamoyl]-2-methyl-1H-1,3-benzodiazol-6-yl}oxy)propanoyl]piperazin-1-yl}ethyl)-3-{3-[(6-fluoronaphthalen-1-yl)oxy]propyl}-7-(1,3,5-trimethyl-1H-pyrazol-4-yl)-1H-indole-2-carboxylic acid] | < 100 nM | < 100 nM | > 31600 nM
COCCOCCn1nc(C)c(-c2c(Cl)ccc3c(CCCOc4cccc5cc(F)ccc45)c(C(=O)O)n(CCN4CCN(C(=O)COc5cccc6c5CN(C5CCC(=O)NC5=O)C6=O)CC4)c23)c1C (stereo not drawn) [Compound 147, 1-(2-(2-Carboxy-6-chloro-3-(3-((6-fluoronaphthalen-1-yl)oxy)propyl)-7-(1-(2-(2-methoxyethoxy)ethyl)-3,5-dimethyl-1H-pyrazol-4-yl)-1H-indol-1-yl)ethyl)-4-(2-((2-(2,6-dioxopiperidin-3-yl)-1-oxoisoindolin-4-yl)oxy)acetyl)piperazin-1-ium trifluoroacetate] | < 100 nM | < 100 nM | > 31600 nM
Cc1nn(C)c(C)c1-c1c(Cl)ccc2c(CCCOc3cccc4cc(F)ccc34)c(C(=O)O)n(CCN3CCN(C(=O)COc4cc(N)cc5c4CN(C4CCC(=O)NC4=O)C5=O)CC3)c12 (stereo not drawn) [Compound 11, 1-{2-[4-(2-{[6-Amino-2-(2,6-dioxopiperidin-3-yl)-1-oxo-2,3-dihydro-1H-isoindol-4-yl]oxy}acetyl)piperazin-1-yl]ethyl}-6-chloro-3-{3-[(6-fluoronaphthalen-1-yl)oxy]propyl}-7-(1,3,5-trimethyl-1H-pyrazol-4-yl)-1H-indole-2-carboxylic acid] | < 316 nM | < 100 nM | > 10000 nM
Cc1nn(C)c(C)c1-c1c(Cl)ccc2c(CCCOc3cccc4cc(F)ccc34)c(C(=O)O)n(CCN3CCC(CN4CCN(c5ccc6c(c5)C(C)N(C5CCC(=O)NC5=O)C6=O)CC4)CC3)c12 (mixture of isomers) [Compound 145, 6-Chloro-1-(2-(4-((4-(2-(2,6-dioxopiperidin-3-yl)-3-methyl-1-oxoisoindolin-5-yl)piperazin-1-yl)methyl)piperidin-1-yl)ethyl)-3-(3-((6-fluoronaphthalen-1-yl)oxy)propyl)-7-(1,3,5-trimethyl-1H-pyrazol-4-yl)-1H-indole-2-carboxylic acid] | < 31.6 nM | < 100 nM | > 10000 nM
Cc1nn(C)c(C)c1-c1c(Cl)ccc2c(CCCOc3cccc4cc(F)ccc34)c(C(=O)O)n(CCN3CCN(C(=O)Cn4c(C)nc5c(C(=O)NC6CCC(=O)NC6=O)ccc(F)c54)CC3)c12 (stereo not drawn) [Compound 1, 6-Chloro-1-(2-(4-(2-(4-((2,6-dioxopiperidin-3-yl)carbamoyl)-7-fluoro-2-methyl-1H-benzo[d]imidazol-1-yl)acetyl)piperazin-1-yl)ethyl)-3-(3-((6-fluoronaphthalen-1-yl)oxy)propyl)-7-(1,3,5-trimethyl-1H-pyrazol-4-yl)-1H-indole-2-carboxylic acid] | < 100 nM | < 100 nM | > 10000 nM
Cc1nn(C)c(C)c1-c1c(Cl)ccc2c(CCCOc3cccc4cc(F)ccc34)c(C(=O)O)n(CCN3CCN(C(=O)c4cc5cc(C6CCC(=O)NC6=O)ccc5n4C)CC3)c12 (stereo not drawn) [Compound 148, 6-Chloro-1-(2-(4-(5-(2,6-dioxopiperidin-3-yl)-1-methyl-1H-indole-2-carbonyl)piperazin-1-yl)ethyl)-3-(3-((6-fluoronaphthalen-1-yl)oxy)propyl)-7-(1,3,5-trimethyl-1H-pyrazol-4-yl)-1H-indole-2-carboxylic acid] | < 31.6 nM | < 316 nM | > 3160 nM
Cc1nc2c(OCC(=O)N3CCN(CCn4c(C(=O)O)c(CCCOc5cccc6cc(F)ccc56)c5ccc(Cl)c(-c6c(C)nn(C)c6C)c54)CC3)cccc2cc1C1CCC(=O)NC1=O (stereo not drawn) [Compound 4, 6-Chloro-1-{2-[4-(2-{[3-(2,6-dioxopiperidin-3-yl)-2-methylquinolin-8-yl]oxy}acetyl)piperazin-1-yl]ethyl}-3-{3-[(6-fluoronaphthalen-1-yl)oxy]propyl}-7-(1,3,5-trimethyl-1H-pyrazol-4-yl)-1H-indole-2-carboxylic acid] | < 100 nM | < 316 nM | > 10000 nM
Cc1nn(C)c(C)c1-c1c(Cl)ccc2c(CCCOc3cccc4cc(F)ccc34)c(C(=O)O)n(CCN3CCN(C(=O)COc4cccc5c4n(C)c(=O)n5C4CCC(=O)NC4=O)CC3)c12 (stereo not drawn) [Compound 23, 6-Chloro-1-(2-(4-(2-((1-(2,6-dioxopiperidin-3-yl)-3-methyl-2-oxo-2,3-dihydro-1H-benzo[d]imidazol-4-yl)oxy)acetyl)piperazin-1-yl)ethyl)-3-(3-((6-fluoronaphthalen-1-yl)oxy)propyl)-7-(1,3,5-trimethyl-1H-pyrazol-4-yl)-1H-indole-2-carboxylic acid] | < 316 nM | < 31.6 nM | > 10000 nM
Cc1nn(C)c(C)c1-c1c(Cl)ccc2c(CCCOc3cccc4cc(F)ccc34)c(C(=O)O)n(CCN3CCN(C(=O)COc4cccc5c4C(C)N(C4CCC(=O)NC4=O)C5=O)CC3)c12 (stereo not drawn) [Compound 15, 6-Chloro-1-{2-[4-(2-{[2-(2,6-dioxopiperidin-3-yl)-3-methyl-1-oxo-2,3-dihydro-1H-isoindol-4-yl]oxy}acetyl)piperazin-1-yl]ethyl}-3-{3-[(6-fluoronaphthalen-1-yl)oxy]propyl}-7-(1,3,5-trimethyl-1H-pyrazol-4-yl)-1H-indole-2-carboxylic acid] | < 316 nM | < 100 nM | > 10000 nM
Cc1nn(C)c(C)c1-c1c(Cl)ccc2c(CCCOc3cccc4cc(F)ccc34)c(C(=O)O)n(CCN3CCN(C(=O)COc4ccc5c(c4)n(C)c(=O)n5C4CCC(=O)NC4=O)CC3)c12 (stereo not drawn) [Compound 22, 6-Chloro-1-(2-(4-(2-((1-(2,6-dioxopiperidin-3-yl)-3-methyl-2-oxo-2,3-dihydro-1H-benzo[d]imidazol-5-yl)oxy)acetyl)piperazin-1-yl)ethyl)-3-(3-((6-fluoronaphthalen-1-yl)oxy)propyl)-7-(1,3,5-trimethyl-1H-pyrazol-4-yl)-1H-indole-2-carboxylic acid] | < 100 nM | < 31.6 nM | > 31600 nM
